Patent publication US5686486A, “4-hydroxy-benzopyran-2-ones and 4-hydroxy-cycloalkyl[b]pyran-2-ones useful to treat retroviral infections” (priority 1995, dated 1997)
Where “and” joins values, the source holds several entries; their conditions need not be identical. Equal values may be shown once. Read-outs that look alike come from different tables or passages of the source.

How the values were obtained:
HIV-1 protease [1] = target: T1, HIV-1 protease (Human immunodeficiency virus type 1 group M subtype B, UniProt P04585); test: biochemical; settings: for inhibition at 0.41 µM: read-out: HIV-1 Protease % Inhib, dose 0.410 uM; for inhibition at 1.23 µM: read-out: HIV-1 Protease % Inhib, dose 1.230 uM; for inhibition at 3.7 µM: read-out: HIV-1 Protease % Inhib, dose 3.700 uM; for inhibition at 11 µM: read-out: HIV-1 Protease % Inhib, dose 11.000 uM; for inhibition at 33 µM: read-out: HIV-1 Protease % Inhib, dose 33.000 uM; for inhibition at 100 µM: read-out: HIV-1 Protease % Inhib, dose 100.000 uM; for inhibition at 0.37 µM: read-out: HIV-1 Protease % Inhib, dose 0.370 uM; for inhibition at 1.1 µM: read-out: HIV-1 Protease % Inhib, dose 1.100 uM; for inhibition at 3.3 µM: read-out: HIV-1 Protease % Inhib, dose 3.300 uM; for inhibition at 10 µM: read-out: HIV-1 Protease % Inhib, dose 10.000 uM; for inhibition at 30 µM: read-out: HIV-1 Protease % Inhib, dose 30.000 uM; for inhibition at 0.123 µM: read-out: HIV-1 Protease % Inhib, dose 0.123 uM
Summary of the method: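 Percent inhibition derived from fluorescent cleavage product separated by filtration after streptavidin-bead capture of intact biotin/FITC substrate. Reaction: enzyme (10 μl, 0.1 μM stock) with substrate (20 μl, 0.2 μM stock) and compound, 1 h at room temperature in dark, pH 5.5 acetate buffer with 1.0 M NaCl and 0.05% NP-40.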

HIV-1 protease [2] = target: T1, HIV-1 protease; test: biochemical
Summary of the method: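 Enzyme (40 nM stock) and substrate (200 μM stock) incubated with inhibitor, 24–48 two-fold serial concentrations, for 90 min at room temperature, then quenched with avidin beads. Nonlinear least-squares analysis gives Ki; a known-Ki inhibitor validates each run.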

Row | SMILES | inhibition at 0.41 µM (HIV-1 protease [1]) | inhibition at 1.23 µM (HIV-1 protease [1]) | inhibition at 3.7 µM (HIV-1 protease [1]) | inhibition at 11 µM (HIV-1 protease [1]) | inhibition at 33 µM (HIV-1 protease [1]) | inhibition at 100 µM (HIV-1 protease [1]) | Ki (HIV-1 protease [2]; read-out: HIV-1 FITC KI) | inhibition at 0.37 µM (HIV-1 protease [1]) | inhibition at 1.1 µM (HIV-1 protease [1]) | inhibition at 3.3 µM (HIV-1 protease [1]) | inhibition at 10 µM (HIV-1 protease [1]) | inhibition at 30 µM (HIV-1 protease [1]) | inhibition at 0.123 µM (HIV-1 protease [1]) | Ki (HIV-1 protease [2]; HIV-1 FITC KI)
1 | CCC(c1ccccc1)c1c(O)c2c(oc1=O)C(Cc1ccccc1)CCCCC2 (stereo not drawn) [Example 122] | 35.1% | 63.5% | 91.7% | 98% | 93.2% | 94.3% | 175 nM |  |  |  |  |  |  | 
2 | O=c1oc2c(c(O)c1C(c1ccccc1)C1CC1)CCCCCC2CC1CCCOC1 (stereo not drawn) [Example 179, 3-(Cyclopropylphenylmethyl)-5,6,7,8,9,10-hexahydro-4-hydroxy-10-[(tetrahydro-2H-pyran-3-yl)methyl]-2H-cycloocta[b]pyran-2-one] |  |  |  |  |  |  | 19 nM | 38.6% | 71.6% | 87.2% | 93.7% | 91.1% |  | 
3 | O=c1oc2c(c(O)c1[C@H](c1cccc(NS(=O)(=O)c3ccc(S(=O)(=O)c4ccccc4)s3)c1)C1CC1)CCCCCC2 [Example 404] |  |  |  |  |  |  | 2.87 nM | 85.3% | 103% | 108% | 106% | 103% | 58.3% | 
4 | O=c1oc2c(c(O)c1[C@H](c1cccc(NS(=O)(=O)c3ccc(F)cc3)c1)C1CC1)CCCCCC2 [Example 252, (-)-N-[3-[Cyclopropyl(5,6,7,8,9,10-hexahydro4-hydroxy-2-oxo-2H-cycloocta[b]pyran-3-yl)methyl]phenyl]-4-fluoro-benzenesulfonamide] |  |  |  |  |  |  | 1.6 nM and 1.1 nM | 108% | 111% | 112% | 116% | 109% | 100% | 
5 | CC(O)CC1CCCCCc2c1oc(=O)c(C(c1ccccc1)C1CC1)c2O (stereo not drawn) [Example 162, 3-(Cyclopropylphenylmethyl)-5,6,7,8,9,10-hexahydro-4-hydroxy-10-(2-hydroxypropyl)-2H-cycloocta[b]pyran-2-one] |  |  |  |  |  |  | 40 nM | 56% | 92.2% | 99.3% | 102% | 109% | 14.8% | 
6 | CC(C)(C)OC(=O)NCCC(=O)Nc1cccc(C(c2c(O)c3ccccc3oc2=O)C2CC2)c1 (stereo not drawn) [Example 165, Carbamic acid, [3-[[3-[cyclopropyl(4-hydroxy-2-oxo-2H-1-benzopyran-3-yl)methyl]phenyl]amino]-3-oxopropyl]-, 1,1-dimethylethyl ester] | 61.7% | 86.7% | 98.4% | 106% | 111% | 114% |  |  |  |  |  |  |  | 86 nM
7 | CCS(=O)(=O)Nc1cccc(C(c2c(O)c3c(oc2=O)CCCCCC3)C2CC2)c1 (stereo not drawn) [Example 318, N-[3-[Cyclopropyl(5,6,7,8,9,10-hexahydro-4-hydroxy-2-oxo-2H-cycloocta[b]pyran-3-yl)methyl]phenyl]-ethanesulfonamide] |  |  |  |  |  |  | 9.9 nM | 45.1% | 84.2% | 99.7% | 97.5% | 106% | 28.3% | 
8 | CN(C)S(=O)(=O)Nc1cccc(C(c2c(O)c3c(oc2=O)CCCCCC3)C2CC2)c1 (stereo not drawn) [Example 398, N'-[3-[cyclopropyl(5,6,7,8,9,10-hexahydro4-hydroxy-2-oxo-2H-cycloocta[b]pyran-3-yl)methyl]phenyl]-N,N-dimethyl-sulfamide] |  |  |  |  |  |  | 41.5 nM | 40.9% | 74.2% | 91.5% | 105% | 105% | 10.5% | 
9 | O=C(CCn1ccc2ccccc21)Nc1cccc(C(c2c(O)c3ccccc3oc2=O)C2CC2)c1 (stereo not drawn) [Example 168, Coumarin, 4-hydroxy-3-(α-(3-((3-(1H-indol-1-yl)-1-oxopropyl)amino)phenyl)cyclopropylmethyl)] |  |  |  |  |  |  |  | 12.4% | 46.4% | 74.9% | 94.7% | 107% |  | 135 nM
10 | O=c1oc2c(c(O)c1[C@H](c1ccccc1)C1CC1)CCCCCC2 [Example 229, (-)-(S)-3-(Cyclopropylphenylmethyl)-5,6,7,8,9,10-hexahydro-4-hydroxy-2H-cyclo[b]pyran-2-one] |  |  |  |  |  |  | 10.6 nM and 11.9 nM and 16.2 nM | 54.3% | 88.8% | 103% | 108% | 105% | 16.9% | 
11 | O=c1oc2c(c(O)c1C(c1cccc(NS(=O)(=O)c3cccc(NCCO)c3)c1)C1CC1)CCCCCC2 (stereo not drawn) [Example 355 (First Title Compound), N-[3-[Cyclopropyl(5,6,7,8,9,10-hexahydro4-hydroxy-2-oxo-2H-cycloocta[b]pyran-3-yl)methyl]phenyl]-3-[(2-ethanol)amino]-benzenesulfonamide] |  |  |  |  |  |  | 2.14 nM | 117% | 115% | 103% | 72.6% | 61.9% | 117% | 
12 | O=c1oc2c(c(O)c1C(c1cccc(NS(=O)(=O)c3cc(Br)c(Br)s3)c1)C1CC1)CCCCCC2 (stereo not drawn) [Example 303, 4,5-Dibromo-N-[3-[cyclopropyl(5,6,7,8,9,10-hexahydro-4-hydroxy-2-oxo-2H-cycloocta[b]pyran-3-yl)methyl]phenyl]-2-thiophenesulfonamide] |  |  |  |  |  |  | 5 nM | 96.5% | 97.7% | 109% | 110% | 98% | 67.4% | 
13 | O=c1oc2c(c(O)c1C(c1ccc(CCO)s1)C1CC1)CCCCCC2 (stereo not drawn) [Example 385] |  |  |  |  |  |  | 12.4 nM | 48.5% | 89.5% | 104% | 107% | 107% |  | 
14 | CN(C)c1ccc(N=Nc2ccc(S(=O)(=O)Nc3cccc(C(c4c(O)c5c(oc4=O)CCCCCC5)C4CC4)c3)cc2)cc1 (stereo not drawn) [Example 309, N-[3-[Cyclopropyl(5,6,7,8,9,10-hexahydro-4-hydroxy-2-oxo-2H-cycloocta[b]pyran-3-yl)methyl]phenyl]-4-[[4-(dimethylamino)phenyl]azo]-benzenesulfonamide] |  |  |  |  |  |  | 5.8 nM | 67.5% | 82.5% | 76.5% | 43.7% | 19.2% | 46.6% | 
15 | O=c1oc2c(c(O)c1C(c1cccc(NS(=O)(=O)c3cc(S(=O)(=O)c4ccccc4)cs3)c1)C1CC1)CCCCCC2 (stereo not drawn) [Example 298, N-[3-[Cyclopropyl(5,6,7,8,9,10-hexahydro-4-hydroxy-2-oxo-2H-cycloocta[b]pyran-3-yl)methyl]phenyl]4-(phenylsulfonyl)-2-thiophenesulfonamide] |  |  |  |  |  |  | 2.5 nM | 84.6% | 94.6% | 97.5% | 101% | 100% | 67.4% | 
16 | CCCC1CCCCCc2c1oc(=O)c([C@@H](c1ccccc1)C1CC1)c2O (mixture of isomers) [Example 232, 3-(R)-(Cyclopropylphenylmethyl)-4-hydroxy-10-(R and S)-propyl-5,6,7,8,9,10-hexahydro-cycloocta[b]pyran-2-one] |  |  |  |  |  |  | 30 nM | 51.2% | 80.4% | 95.3% | 104% | 95% | 19.3% | 
17 | CCCC(c1cccc(NS(=O)(=O)c2ccc(C#N)cc2)c1)c1c(O)c2c(oc1=O)CCCCCC2 (stereo not drawn) [Example 378, Benzenesulfonamide, 4-cyano-N-[3-[1-(5,6,7,8,9,10-hexahydro-4-hydroxy-2-oxo-2H-cycloocta[b]pyran-3-yl)butyl]phenyl]-] |  |  |  |  |  |  | 1.06 nM | 111% | 112% | 118% | 112% | 112% | 103% | 
18 | Cc1nn(C)c(Cl)c1S(=O)(=O)Nc1cccc(C(c2c(O)c3c(oc2=O)CCCCCC3)C2CC2)c1 (stereo not drawn) [Example 294, 5-Chloro-N-[3-[cyclopropyl(5,6,7,8,9,10-hexahydro-4-hydroxy-2-oxo-2H-cycloocta[b]pyran-3-yl)methyl]phenyl]-1,3-dimethyl-1H-pyrazole-4-sulfonamide] |  |  |  |  |  |  | 139 nM | 20.9% | 52.9% | 81.1% | 94.7% | 110% |  | 
19 | O=c1oc2c(c(O)c1C(c1cccc(NS(=O)(=O)CCCI)c1)C1CC1)CCCCCC2 (stereo not drawn) [Example 365C, 3-Iodo-N-[3-[cyclopropyl(5,6,7,8,9,10-hexahydro-4-hydroxy-2-oxo-2H-cycloocta[b]pyran-3-yl)methyl]phenyl]-1-propanesulfonamide] |  |  |  |  |  |  | 16.6 nM | 93.6% | 102% | 71.5% | 87.5% | 83.5% | 63% | 
